Residues, ends and D or L forms follow the SMILES beside them.

The test system of assay [1] is Escherichia coli (ATCC11775). The experiment in a line: Inhibition zone assay (agar plate). It is filed as cell-based. The conditions noted are these: for Inhibition zones: in mm diameter: 50 nanomoles per well (3 mm diameter).
Assay [2] concerns E. coli D22. It is filed as cell-based. The conditions noted are these: 50 nanomoles per well (3 mm diameter).
For assay [3], the system named is Shigella dysenteriae. The format is cell-based. As to conditions: for Inhibition zones: in mm diameter: 50 nanomoles per well (3 mm diameter).
The test system of assay [4] is Pseudomonas syringae. The assay can be described thus: Inhibition zone assay (agar plate). As to conditions: for Inhibition zones: in mm diameter: 50 nanomoles per well (3 mm diameter). It is filed as cell-based.
The subject of assay [5] is Enterobacter cloacae. The assay can be described thus: Inhibition zone assay (agar plate). The format is cell-based. As to conditions: for Inhibition zones: in mm diameter: 50 nanomoles per well (3 mm diameter).
The test system of assay [6] is Salmonella typhi. It is filed as cell-based. The conditions noted are these: for Inhibition zones: in mm diameter: 50 nanomoles per well (3 mm diameter).
Assay [7] deals with Klebsiella pneumoniae. The assay can be described thus: Inhibition zone assay (agar plate). The format is cell-based. As to conditions: for Inhibition zones: in mm diameter: 50 nanomoles per well (3 mm diameter).
Assay [8] deals with Agrobacterium tumefaciens. The assay can be described thus: Inhibition zone assay (agar plate). It is filed as cell-based. As to conditions: 50 nanomoles per well (3 mm diameter).
The subject of assay [9] is Salmonella typhimurium. The assay can be described thus: Inhibition zone assay (agar plate). The conditions noted are these: for Inhibition zones: in mm diameter: 50 nanomoles per well (3 mm diameter). It is filed as cell-based.
Assay [10] deals with Erwinia amylovora. The assay can be described thus: Inhibition zone assay (agar plate). The format is cell-based. The conditions noted are these: for Inhibition zones: in mm diameter: 50 nanomoles per well (3 mm diameter).
The subject of assay [11] is Acinetobacter calcoaceticus. The experiment in a line: Inhibition zone assay (agar plate). As to conditions: 50 nanomoles per well (3 mm diameter). It is filed as cell-based.
Assay [12] concerns S. typhimurium. The assay can be described thus: Minimal inhibitory concentration (liquid culture). The conditions noted are these: inoculum 8 × 10^6 CFU/ml; a-b = highest concentration with growth - lowest without growth.
For assay [13], the system named is E. coli 25922. The experiment in a line: Minimal inhibitory concentration (liquid culture). As to conditions: inoculum 1100 CFU/ml; a-b = highest concentration with growth - lowest without growth.
Assay [14] relates to Y. enterocolitica. The assay can be described thus: Minimal inhibitory concentration (liquid culture). As to conditions: inoculum 5000 CFU/ml; a-b = highest concentration with growth - lowest without growth.
The subject of assay [15] is Rhizobium meliloti. The experiment in a line: Inhibition zone assay (agar plate). The format is cell-based. As to conditions: 50 nanomoles/well, 3 mm wells.
The test system of assay [16] is E. coli Apid^R. The experiment in a line: Minimal inhibitory concentration (liquid culture). The conditions noted are these: a-b = highest concentration with growth - lowest without growth. The format is cell-based. The text has this:
For details see `Experimental Procedures`.

Assay [17] deals with A. calcoaceticus. The experiment in a line: Minimal inhibitory concentration (liquid culture). As to conditions: inoculum 16 × 10^6 CFU/ml; a-b = highest concentration with growth - lowest without growth.
In assay [18] the test system is E. coli 11775. The experiment in a line: Minimal inhibitory concentration (liquid culture). As to conditions: a-b = highest concentration with growth - lowest without growth.
Assay [19] concerns Morganella morganii. The assay can be described thus: Inhibition zone assay (agar plate). As to conditions: 50 nanomoles/well, 3 mm wells. It is filed as cell-based.
Assay [20] has as its system Yersinia enterocolitica. The experiment in a line: Inhibition zone assay (agar plate). It is filed as cell-based. The conditions noted are these: 50 nanomoles/well, 3 mm wells.
Assay [21] deals with E. coli 23802. The assay can be described thus: Minimal inhibitory concentration (liquid culture). As to conditions: inoculum 5000 CFU/ml; a-b = highest concentration with growth - lowest without growth.
In assay [22] the test system is M. morganii. The experiment in a line: Minimal inhibitory concentration (liquid culture). The conditions noted are these: inoculum 400 CFU/ml; a-b = highest concentration with growth - lowest without growth.
Setting [23] is: agar plate, 50 nanomoles/well, 3 mm wells.

`CC(C)C[C@H](NC(=O)[C@H](CCCNC(=N)N)NC(=O)[C@@H]1CCCN1C(=O)[C@H](Cc1c[nH]cn1)NC(=O)[C@@H]1CCCN1C(=O)[C@@H]1CCCN1C(=O)[C@H](CCCNC(=N)N)NC(=O)[C@@H]1CCCN1C(=O)[C@@H]1CCCN1C(=O)[C@@H](NC(=O)[C@H](CCC(N)=O)NC(=O)[C@H](CCC(N)=O)NC(=O)[C@@H]1CCCN1C(=O)[C@H](CCCNC(=N)N)NC(=O)[C@@H]1CCCN1C(=O)[C@H](CCCCN)NC(=O)[C@@H](N)Cc1ccccc1)C(C)C)C(=O)O` [HoFP, F K P R P Q Q V P P R P P H P R L] (H-FKPRPQQVPPRPPHPRL-OH): the “Inhibition zones: in mm diameter” value in assay [1] was 13 mm; in [2] it was 16 mm; in [3], 18 mm; in assay [4], 12 mm; in assay [5] it was 14 mm; in assay [6], 13 mm. Moreover, the “Inhibition zones: in mm diameter” value in [7] was 14 mm; in assay [8], 11 mm; in assay [9], 12 mm; in [10], 11 mm.

For `CC[C@H](C)[C@H](NC(=O)[C@@H]1CCCN1C(=O)[C@@H](NC(=O)[C@H](CCC(N)=O)NC(=O)[C@@H]1CCCN1C(=O)[C@H](CO)NC(=O)[C@@H]1CCCN1C(=O)[C@H](CCCNC(=N)N)NC(=O)[C@@H](N)CO)C(C)C)C(=O)N[C@@H](CCCNC(=N)N)C(=O)N1CCC[C@H]1C(=O)N[C@@H](CO)C(=O)N[C@@H](CCC(N)=O)C(=O)N1CCC[C@H]1C(=O)N[C@@H](CCCNC(=N)N)C(=O)N1CCC[C@H]1C(=O)N[C@@H](CCC(N)=O)C(=O)N1CCC[C@H]1C(=O)NCC(=O)N[C@@H](CCCCN)C(=O)N1CCC[C@H]1C(=O)N[C@@H](CCCNC(=N)N)C(=O)N1CCC[C@H]1C(=O)N[C@@H](CCC(N)=O)C(=O)N[C@@H](CCC(N)=O)C(=O)N[C@H](C(=O)N1CCC[C@H]1C(=O)N1CCC[C@H]1C(=O)N[C@@H](CCCNC(=N)N)C(=O)N1CCC[C@H]1C(=O)N1CCC[C@H]1C(=O)N[C@@H](Cc1c[nH]cn1)C(=O)N1CCC[C@H]1C(=O)N[C@@H](CCCNC(=N)N)C(=O)N[C@@H](CC(C)C)C(=O)O)C(C)C` [PAB-GP, SRPSPQVPIRPSQPRPQPGKPRPQQVPPRPPHPRL] (H-SRPSPQVPIRPSQPRPQPGKPRPQQVPPRPPHPRL-OH), the “Inhibition zones: in mm diameter” value in assay [1] is 10 mm; in [2], 14 mm; in assay [3], 11 mm; in assay [4], 6 mm; in assay [5], 13 mm; in assay [11], 9 mm. For the same molecule, the “Inhibition zones: in mm diameter” value worked out at 13 mm in [6]; 9 mm in assay [7]; 8 mm in [8]; 6 mm in assay [9]; 5 mm in assay [10].

As for `CC[C@H](C)[C@H](NC(=O)[C@@H]1CCCN1C(=O)[C@@H](NC(=O)[C@H](CCC(N)=O)NC(=O)[C@@H]1CCCN1C(=O)[C@H](CO)NC(=O)[C@@H]1CCCN1C(=O)[C@H](CCCNC(=N)N)NC(=O)[C@@H](N)CO)C(C)C)C(=O)N[C@@H](CCCNC(=N)N)C(=O)N1CCC[C@H]1C(=O)N[C@@H](CO)C(=O)N[C@@H](CCC(N)=O)C(=O)N1CCC[C@H]1C(=O)N[C@@H](CCCNC(=N)N)C(=O)N1CCC[C@H]1C(=O)N[C@@H](CCC(N)=O)C(=O)N1CCC[C@H]1C(=O)N[C@@H](Cc1ccccc1)C(=O)N[C@@H](CCCCN)C(=O)N1CCC[C@H]1C(=O)N[C@@H](CCCNC(=N)N)C(=O)N1CCC[C@H]1C(=O)N[C@@H](CCC(N)=O)C(=O)N[C@@H](CCC(N)=O)C(=O)N[C@H](C(=O)N1CCC[C@H]1C(=O)N1CCC[C@H]1C(=O)N[C@@H](CCCNC(=N)N)C(=O)N1CCC[C@H]1C(=O)N1CCC[C@H]1C(=O)N[C@@H](Cc1c[nH]cn1)C(=O)N1CCC[C@H]1C(=O)N[C@@H](CCCNC(=N)N)C(=O)N[C@@H](CC(C)C)C(=O)O)C(C)C` [PAB-FP, SRPSPQVPIRPSQPRPQPFKPRPQQVPPRPPHPRL] (H-SRPSPQVPIRPSQPRPQPFKPRPQQVPPRPPHPRL-OH), the “Inhibition zones: in mm diameter” value in [1] is 10 mm; in assay [2], 14 mm; in [3] it was 12 mm; in assay [5] it was 11 mm; in [11], 8 mm; in assay [6] it was 13 mm. The “Inhibition zones: in mm diameter” value is recorded as 8 mm in assay [7], 7 mm in assay [8], 7 mm in assay [9] and 5 mm in assay [10].

In the case of “QVPIRPSQPRPQPFKPRPQQVPPRTPHPR (QVPIRPSQPRPQPFKPRPQQVPPRTPHPR) [PAB-FT 6-35]”, the “Inhibition zones: in mm diameter” value in [1] is recorded as 13 mm; in assay [2] it was 14 mm; in assay [3], 12 mm; in assay [5], 12 mm; in [11], 10 mm; in assay [6], 14 mm. For the same molecule, the “Inhibition zones: in mm diameter” value was determined as 11 mm in assay [7] and 8 mm in assay [9].

Regarding `CC(C)C[C@H](NC(=O)[C@H](CCCNC(=N)N)NC(=O)[C@@H]1CCCN1C(=O)[C@H](Cc1c[nH]cn1)NC(=O)[C@@H]1CCCN1C(=O)[C@@H]1CCCN1C(=O)[C@H](CCCNC(=N)N)NC(=O)[C@@H]1CCCN1C(=O)[C@@H]1CCCN1C(=O)[C@@H](NC(=O)[C@H](CCC(N)=O)NC(=O)[C@H](CCC(N)=O)NC(=O)[C@@H]1CCCN1C(=O)[C@@H](N)CCCNC(=N)N)C(C)C)C(=O)O` [Ho -, Arg--Pro--Gln--Gln--Val--Pro--Pro--Arg--Pro--Pro--His--Pro--Arg--Leu] (H-RPQQVPPRPPHPRL-OH), the “inhibition zone diameter (number of plus signs)” value is “+++ ((+++) 10-14 mm)” in assay [1] (setting [23]); “+ ((+) 5-6 mm)” in assay [3] (setting [23]); “+++ ((+++) 10-14 mm)” in assay [4] (setting [23]); “+ ((+) 5-6 mm)” in [5] (setting [23]); “++++ ((++++) 15-19 mm)” in assay [15]; “+ ((+) 5-6 mm)” in assay [6] (setting [23]). The “inhibition zone diameter (number of plus signs)” value in assay [7] (setting [23]) is “+ ((+) 5-6 mm)”; in assay [19], “++ ((++) 7-9 mm)”; in assay [20], “++ ((++) 7-9 mm)”; in [9] (setting [23]), “+ ((+) 5-6 mm)”; in assay [10] (setting [23]), “++ ((++) 7-9 mm)”. Moreover, the “minimal inhibitory concentration (MIC)” value was 5 to 10 µg/mL in [12]; 10 to 20 µg/mL in assay [13]; 10 to 20 µg/mL in assay [14]; greater than 40 µg/mL in assay [16] (inoculum 12 × 10^6 CFU/ml); greater than 40 µg/mL in assay [16] (inoculum 1000 CFU/ml); greater than 20 µg/mL in assay [17]. The “minimal inhibitory concentration (MIC)” value was 10 to 20 µg/mL in assay [18] (inoculum 16 × 10^6 CFU/ml), 0.5 to 1 µg/mL in assay [18] (inoculum 1200 CFU/ml), greater than 40 µg/mL in assay [21] and 10 to 20 µg/mL in [22].

As for “SQPRPQPFKPRPQQVPPRTPHPR (SQPRPQPFKPRPQQVPPRTPHPR) [PAB-FT 12-35]”, the “Inhibition zones: in mm diameter” value in assay [1] is given as 10 mm; in assay [2], 10 mm; in assay [3], 11 mm; in assay [5], 11 mm; in assay [6], 5 mm; in assay [7], 6 mm.
